Measured values taken from ChEMBL document CHEMBL1136143, “Synthesis and activity of novel benzoxazole derivatives of mannopeptimycin glycopeptide antibiotics” (2003).
In brackets after ≈: the same amount, converted by molar mass.

Columns and labels:
[1] = test system: Enterococcus faecium; test: In vitro minimum inhibitory concentration against vancomycin-resistant Enterococcus faecium (GC 4558); format: functional
[2] = test system: Enterococcus faecalis; test: In vitro minimum inhibitory concentration against vancomycin-susceptible Enterococcus faecalis (GC 2691); format: functional
[3] = test system: Micrococcus luteus; test: In vitro minimum inhibitory concentration against Micrococcus lutea (GC 4562); format: functional
[4] = test system: Enterococcus faecalis; test: In vitro minimum inhibitory concentration against vancomycin-susceptible Enterococcus faecalis (GC 4554); format: functional
[5] = test system: Staphylococcus aureus; test: In vitro minimum inhibitory concentration against Staphylococcus aureus (10strains, including MRSA); format: functional
[6] = test system: Enterococcus sp.; test: In vitro minimum inhibitory concentration against Enterococcus species (11 strains, including VRE); format: functional
[7] = test system: Enterococcus faecium; test: In vitro minimum inhibitory concentration against vancomycin-susceptible Enterococcus faecium (GC 4556); format: functional
[8] = test system: Enterococcus faecalis; test: In vitro minimum inhibitory concentration against vancomycin-resistant Enterococcus faecalis (GC 3059); format: functional
[9] = test system: Enterococcus faecalis; test: In vitro minimum inhibitory concentration against vancomycin-susceptible Enterococcus faecalis (GC 4552); format: functional
[10] = test system: Streptococcus; test: In vitro minimum inhibitory concentration against Streptococcus Species (5 strains, including PRSP); format: functional
[11] = test system: Staphylococcus aureus; test: In vitro minimum inhibitory concentration against Methicillin-resistant Staphylococcus aureus(GC 4541); format: functional
[12] = test system: Staphylococcus aureus; test: In vitro minimum inhibitory concentration against Methicillin-resistant Staphylococcus aureus(GC 4545); format: functional
[13] = test system: Staphylococcus aureus; test: In vitro minimum inhibitory concentration against Methicillin-resistant Staphylococcus aureus (GC 1131); format: functional
[14] = test system: Streptococcus pneumoniae; test: In vitro minimum inhibitory concentration against Penicillin susceptible Streptococcus pneumoniae (GC 4565)
[15] = test system: Enterococcus faecalis; test: In vitro minimum inhibitory concentration against vancomycin-susceptible Enterococcus faecalis (GC 4555); format: functional
[16] = test system: Staphylococcus haemolyticus; test: In vitro minimum inhibitory concentration against methicillin-resistant Coagulase-negative Staphylococci (MRCNS) (GC 4546)); format: functional
[17] = test system: Staphylococcus aureus; test: In vitro minimum inhibitory concentration against Methicillin-resistant Staphylococcus aureus(GC 4544); format: functional
[18] = test system: Staphylococcus haemolyticus; test: In vitro minimum inhibitory concentration against methicillin-susceptible Coagulase-negative Staphylococci (MSCNS) (GC 4549)); format: functional
[19] = test system: Staphylococcus haemolyticus; test: In vitro minimum inhibitory concentration against methicillin-resistant Coagulase-negative Staphylococci (MRCNS) (GC 4547)); format: functional
[20] = test system: Staphylococcus haemolyticus; test: In vitro minimum inhibitory concentration against methicillin-susceptible Coagulase-negative Staphylococci (MSCNS) (GC 4551); format: functional
[21] = test system: Enterococcus faecalis; test: In vitro minimum inhibitory concentration against vancomycin-resistant Enterococcus faecalis (GC 6189); format: functional
[22] = test system: Enterococcus faecium; test: In vitro minimum inhibitory concentration against vancomycin-resistant Enterococcus faecium (GC 2243); format: functional
[23] = test system: Streptococcus pneumoniae; test: In vitro minimum inhibitory concentration against Penicillin resistant Streptococcus pneumoniae (GC 1894); format: functional
[24] = test system: Staphylococcus aureus; test: In vitro minimum inhibitory concentration against glycopeptide tntermediate Staphylococcus aureus (GC 3066); format: functional
[25] = test system: Staphylococcus aureus; test: In vitro minimum inhibitory concentration against glycopeptide tntermediate Staphylococcus aureus (GC 3051); format: functional
[26] = test system: Staphylococcus haemolyticus; test: In vitro minimum inhibitory concentration against methicillin-resistant Coagulase-negative Staphylococci (MRCNS) (GC 4548)); format: functional
[27] = test system: Enterococcus faecalis; test: In vitro minimum inhibitory concentration against vancomycin-resistant Enterococcus faecalis (GC 2242); format: functional
[28] = test system: Streptococcus agalactiae; test: In vitro minimum inhibitory concentration against Streptococcus agalactiae (GC4564)
[29] = test system: Enterococcus faecalis; test: In vitro minimum inhibitory concentration against vancomycin-susceptible Enterococcus faecalis (GC 4553); format: functional
[30] = test system: Bacillus cereus; test: In vitro minimum inhibitory concentration against Bacillus cereus (GC 4561) assay organism; format: functional
[31] = test system: Streptococcus pneumoniae; test: In vitro minimum inhibitory concentration against Penicillin susceptible Streptococcus pneumoniae (GC 6242); format: functional
[32] = test system: Staphylococcus aureus; test: In vitro minimum inhibitory concentration against Methicillin-resistant Staphylococcus aureus (GC 2216); format: functional
[33] = test system: Staphylococcus aureus; test: In vitro minimum inhibitory concentration against Methicillin-resistant Staphylococcus aureus (GC 4543); format: functional
[34] = test system: Staphylococcus aureus; test: In vitro minimum inhibitory concentration against Methicillin-resistant Staphylococcus aureus (GC 4542); format: functional
[35] = test system: Streptococcus pyogenes; test: In vitro minimum inhibitory concentration against Streptococcus pyogenes (GC 4563)
[36] = test system: Enterococcus faecium; test: In vitro minimum inhibitory concentration against vancomycin-susceptible Enterococcus faecium (GC 4557); format: functional
[37] = test system: Staphylococcus haemolyticus; test: In vitro minimum inhibitory concentration against methicillin-susceptible Coagulase-negative Staphylococci (MSCNS) (GC 6257); format: functional
[38] = test system: Staphylococcus haemolyticus; test: In vitro minimum inhibitory concentration against methicillin-resistant Coagulase-negative Staphylococci (MRCNS) (GC 4547); format: functional
[39] = test system: Streptococcus pneumoniae; test: In vitro minimum inhibitory concentration against Penicillin susceptible Streptococcus pneumoniae (GC 4565); format: functional
[40] = test system: Streptococcus pyogenes; test: In vitro minimum inhibitory concentration against Streptococcus pyogenes (GC 4563); format: functional
[41] = test system: Staphylococcus aureus; test: In vitro minimum inhibitory concentration against Methicillin-susceptible Staphylococcus aureus (GC 2216); format: functional
[42] = test system: Staphylococcus aureus; test: In vitro minimum inhibitory concentration against Methicillin-susceptible Staphylococcus aureus (GC 4543); format: functional
[43] = test system: Staphylococcus haemolyticus; test: In vitro minimum inhibitory concentration against methicillin-susceptible Coagulase-negative Staphylococci (MSCNS) (GC 4549); format: functional
[44] = test system: Staphylococcus aureus; test: In vitro minimum inhibitory concentration against Methicillin-susceptible Staphylococcus aureus(GC 4544); format: functional
[45] = test system: Staphylococcus haemolyticus; test: In vitro minimum inhibitory concentration against methicillin-resistant Coagulase-negative Staphylococci (MRCNS) (GC 4548); format: functional
[46] = test system: Staphylococcus haemolyticus; test: In vitro minimum inhibitory concentration against methicillin-resistant Coagulase-negative Staphylococci (MRCNS) (GC 4546); format: functional
[47] = test system: Streptococcus agalactiae; test: In vitro minimum inhibitory concentration against Streptococcus agalactiae (GC4564); format: functional
[48] = test system: Staphylococcus aureus; test: In vitro minimum inhibitory concentration against Methicillin-susceptible Staphylococcus aureus(GC 4545); format: functional

Compound `C[C@@H](c1ccccc1)[C@@H]1NC(=O)CNC(=O)[C@H](CO)NC(=O)[C@@H]([C@@H](O)[C@@H]2CN=C(N)N2[C@H]2O[C@H](CO)[C@@H](O)[C@H](O)[C@@H]2O)NC(=O)[C@H]([C@H](O)[C@@H]2CN=C(N)N2)NC(=O)[C@@H](Cc2ccc3nc(-c4cccc(F)c4)oc3c2)NC1=O` has an MIC [1] of 16 µg/mL (≈ 14.7 µM), an MIC [2] of 32 µg/mL (≈ 29.4 µM) and an MIC [3] of 2 µg/mL (≈ 1.83 µM). The MIC [4] was 64 µg/mL (≈ 58.7 µM), the MIC [5] was 8 µg/mL (≈ 7.34 µM) and the MIC [6] was 16 µg/mL (≈ 14.7 µM). For the same compound, the MIC [7] was 64 µg/mL (≈ 58.7 µM), the MIC [8] was 64 µg/mL (≈ 58.7 µM) and the MIC [9] was 64 µg/mL (≈ 58.7 µM). It also gave an MIC [10] of 4 µg/mL (≈ 3.67 µM), an MIC [11] of 16 µg/mL (≈ 14.7 µM) and an MIC [12] of 8 µg/mL (≈ 7.34 µM). For the same compound, the MIC [13] was 8 µg/mL (≈ 7.34 µM), the MIC [14] was 16 µg/mL (≈ 14.7 µM) and the MIC [15] was 64 µg/mL (≈ 58.7 µM). For the same compound, the MIC [16] was 4 µg/mL (≈ 3.67 µM), the MIC [17] was 8 µg/mL (≈ 7.34 µM) and the MIC [18] was 16 µg/mL (≈ 14.7 µM). It also gave an MIC [19] of 8 µg/mL (≈ 7.34 µM), an MIC [20] of 8 µg/mL (≈ 7.34 µM) and an MIC [21] of 32 µg/mL (≈ 29.4 µM). The MIC [22] was 32 µg/mL (≈ 29.4 µM), the MIC [23] was 16 µg/mL (≈ 14.7 µM) and the MIC [24] was 16 µg/mL (≈ 14.7 µM). For the same compound, the MIC [25] was 16 µg/mL (≈ 14.7 µM), the MIC [26] was 4 µg/mL (≈ 3.67 µM) and the MIC [27] was 32 µg/mL (≈ 29.4 µM). It also gave an MIC [28] of 8 µg/mL (≈ 7.34 µM), an MIC [29] of 16 µg/mL (≈ 14.7 µM) and an MIC [30] of 64 µg/mL (≈ 58.7 µM). It also gave an MIC [31] of 8 µg/mL (≈ 7.34 µM), an MIC [32] of 8 µg/mL (≈ 7.34 µM) and an MIC [33] of 8 µg/mL (≈ 7.34 µM). It also gave an MIC [34] of 8 µg/mL (≈ 7.34 µM), an MIC [35] of 4 µg/mL (≈ 3.67 µM) and an MIC [36] of 8 µg/mL (≈ 7.34 µM). For the same compound, the MIC [37] was 4 µg/mL (≈ 3.67 µM).
For `CCN1CCN(C(=O)N[C@@H](C(=O)N[C@@H]2C(=O)N3[C@@H]2SC(C)(C)[C@@H]3C(=O)O)c2ccccc2)C(=O)C1=O` [PIPERACILLIN], the MIC [1] was > 64 µg/mL, the MIC [2] was 2 µg/mL (≈ 3.86 µM) and the MIC [3] was < 0.06 µg/mL. It also gave an MIC [4] of 1 µg/mL (≈ 1.93 µM), an MIC [5] of 0.5 µg/mL (≈ 0.966 µM) and an MIC [6] of 0.25 µg/mL (≈ 0.483 µM). For the same compound, the MIC [38] was > 64 µg/mL, the MIC [39] was < 0.006 µg/mL and the MIC [7] was 1 µg/mL (≈ 1.93 µM). The MIC [40] was < 0.006 µg/mL, the MIC [8] was 2 µg/mL (≈ 3.86 µM) and the MIC [9] was 2 µg/mL (≈ 3.86 µM). The MIC [41] was 4 µg/mL (≈ 7.73 µM), the MIC [10] was < 0.12 µg/mL and the MIC [42] was 1 µg/mL (≈ 1.93 µM). For the same compound, the MIC [43] was 32 µg/mL (≈ 61.8 µM), the MIC [11] was > 64 µg/mL and the MIC [44] was 4 µg/mL (≈ 7.73 µM). For the same compound, the MIC [13] was > 64 µg/mL, the MIC [45] was 16 µg/mL (≈ 30.9 µM) and the MIC [15] was 1 µg/mL (≈ 1.93 µM). The MIC [46] was > 64 µg/mL, the MIC [20] was 4 µg/mL (≈ 7.73 µM) and the MIC [21] was 2 µg/mL (≈ 3.86 µM). For the same compound, the MIC [22] was 64 µg/mL (≈ 124 µM), the MIC [23] was 2 µg/mL (≈ 3.86 µM) and the MIC [24] was 0.5 µg/mL (≈ 0.966 µM). The MIC [25] was 64 µg/mL (≈ 124 µM), the MIC [27] was 2 µg/mL (≈ 3.86 µM) and the MIC [29] was > 64 µg/mL. The MIC [30] was 1 µg/mL (≈ 1.93 µM), the MIC [31] was < 0.06 µg/mL and the MIC [47] was 0.12 µg/mL (≈ 0.232 µM). It also gave an MIC [34] of 64 µg/mL (≈ 124 µM), an MIC [36] of 0.12 µg/mL (≈ 0.232 µM) and an MIC [48] of 8 µg/mL (≈ 15.5 µM). For the same compound, the MIC [37] was 4 µg/mL (≈ 7.73 µM).
